Test results taken from US20240050408A1, “USE OF MGLUR5 ANTAGONISTS FOR TREATING AMPHETAMINE ADDICTION” (NOVARTIS AG, priority 2020, published 2024).

What was measured:
[1] = Phase 2 trial: safety and adverse events; format: in vivo, human
Description: (§1) This study was conducted in patients with CUD and consisted of about a 21-day screening period followed by a 7-day baseline period, a 98-day outpatient treatment period, and an end of study visit evaluation about 14 days after the last study drug administration ([…]. A). Study treatment was taken twice daily (separated by about 12-hour intervals) with food. For patients in the mavoglurant arm [mavoglurant (free form) provided as modified release formulation (e.g. in WO2014/199316)], an uptitration regimen was performed for 14 days (50 mg b.i.d. from Days 1 to 7 and 100 mg b.i.d from Days 8 to 14) and was followed by 200 mg b.i.d for 84 days.
Data for vital signs, electrocardiogram (ECG) and clinical laboratory evaluations were summarized by treatment and visit/time. Mavoglurant plasma concentrations were recorded at pre-dose and 2 hour (±1 hour) sampling window after the morning dose and summary statistics for concentrations were provided for plasma.
Data for vital signs (BP, pulse rate, body temperature), ECGs, and clinical laboratory evaluations were listed by treatment, subject, visit/time; abnormalities were flagged (if ranges were available).
The number and percentage of subjects with AEs are tabulated by body system and PT with a breakdown by treatment. A subject with multiple AEs within body system was only counted once towards the total of this body system and treatment.
Patient Reported Outcome included: • 1. The TLFB cocaine: is a cocaine assessment method that obtains estimates of daily cocaine intake and has been evaluated with clinical and nonclinical populations. Using a calendar, people provide retrospective estimates of their daily cocaine use over a specified time period that can vary up to 12 months from the interview date. Several memory aids can be used to enhance recall (e.g., calendar; key dates serve as anchors for reporting cocaine use). […] The method is recommended for use when relatively precise estimates of cocaine use are necessary, especially when a complete use pre-posttreatment). Clinically, the TLFB can be used to provide feedback about one's cocaine consumption in an effort to increase a client's motivation to change. • 2. The TLFB alcohol: is a drinking assessment method that obtains estimates of daily drinking and has been evaluated with clinical and nonclinical populations. Using a calendar, people provide retrospective estimates of their daily drinking over a specified time period that can vary up to 12 months from the interview date. Several memory aids can be used to enhance recall (e.g., calendar; key dates serve as anchors for reporting drinking; standard drink conversion). […] The method is recommended for use when relatively precise estimates of drinking are necessary, especially when a complete picture of drinking days (i.e., high- and low-risk days) is needed (evaluating drinking pre/post-treatment). Clinically, the TLFB can be used to provide feedback about one's drinking in an effort to increase a client's motivation to change. Overall, the Alcohol TLFB method provides a relatively accurate portrayal of drinking, and has both clinical and research utility. • 3. The BDI-II: is instrument endorsed by the National Institute for Health and Clinical Excellence for use in primary care in measuring baseline depression severity and responsiveness to treatment. • 4. The STAI: is an assessment tool for measuring the presence and severity of current symptoms of anxiety and a generalized propensity to be anxious. There are 2 subscales within this measure. First, the State Anxiety Scale (S-Anxiety) evaluates the current state of anxiety, asking how respondents feel “right now,” using items that measure subjective feelings of apprehension, tension, nervousness, worry, and activation/arousal of the autonomic nervous system. […]

[2] = system: patients with Cocaine Use Disorder (CUD); assay: Phase 2 trial: alcohol consumption by TLFB; format: in vivo, human; settings: difference vs placebo not statistically significant (P=0.072)
Description: as §1
Alcohol consumption was recorded by the subjects using TLFB. The number of drinks was recorded daily. […] The past consumption of alcohol was the proportion of alcohol over the 28 days preceding the screening visit, which was assessed retrospectively using the TLFB. […]
Patient Reported Outcome included: • 1. The TLFB cocaine: is a cocaine assessment method that obtains estimates of daily cocaine intake and has been evaluated with clinical and nonclinical populations. […] The TLFB alcohol: is a drinking assessment method that obtains estimates of daily drinking and has been evaluated with clinical and nonclinical populations. […]

COC(=O)N1CC[C@@H]2[C@H]1CCC[C@@]2(O)C#Cc1cccc(C)c1 [mavoglurant, (-)-(3aR,4S,7aR)-4-Hydroxy-4-m-tolylethynyl-octahydro-indole-1-carboxylic acid methyl ester]
overall AE rate vs placebo group ([1]; CUD patients, 98-day treatment): comparable
overall safety and tolerability ([1]; CUD patients, 98-day treatment): safe and well tolerated
rate of psychiatric symptoms vs placebo group ([1]; CUD patients, 98-day treatment): higher rate of psychiatric symptoms
vital signs, ECGs, clinical safety laboratory parameters ([1]; CUD patients, 98-day treatment): no significant findings
overall safety and tolerability ([1]; CUD patients, 98-day treatment, listed as Mavoglurant): safe and well-tolerated
deaths or SAEs ([1]; mavoglurant group): no deaths or SAEs
alcohol consumption by TLFB [2]: reduced alcohol consumption
